# Laboratory results as given in patent publication US8952024B2, “Herbicidal pyrimidone derivatives” (E I du Pont de Nemours and Company, priority 2009, dated 2015).
# How the values were obtained:
# Format in all cases: in vivo
# [1] = test system: chickweed (Stellaria media); assay: Test B postemergence plant response; conditions: Postemergence
# How it was run: (§1)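 Visual ratings from 0 (no effect) to 100 (complete control), made against controls 13–15 days after treatment, kept in a greenhouse. Compounds were applied postemergence to potted plants at the 1- to 4-leaf stage (2–18 cm).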
# [2] = test system: windgrass (Apera spica-venti); assay: Test B postemergence plant response; conditions: Postemergence
# How it was run: as §1
# [3] = test system: canarygrass (Phalaris minor); assay: Test B postemergence plant response; conditions: Postemergence
# How it was run: as §1
# [4] = test system: wheat (Triticum aestivum); assay: Test B pre-/postemergence plant response
# Source text: (§2) Seeds of plant species selected from blackgrass (Alopecurus myosuroides), downy bromegrass (Bromus tectorum), green foxtail (Setaria viridis), Italian ryegrass (Lolium multiflorum), wheat (Triticum aestivum), wild oat (Avena fatua), deadnettle (henbit deadnettle, Lamium amplexicaule), galium (catchweed bedstraw, Galium aparine), bermudagrass (Cynodon dactylon), Surinam grass (Brachiaria decumbens), cocklebur (Xanthium strumarium), corn (Zea mays), large crabgrass (Digitaria sanguinalis), woolly cupgrass (Eriochloa villosa), giant foxtail (Setaria faberii), goosegrass (Eleusine indica), johnsongrass (Sorghum halepense), kochia (Kochia scoparia), lambsquarters (Chenopodium album), morningglory (Ipomoea coccinea), nightshade (eastern black nightshade, Solanum ptycanthum), yellow nutsedge (Cyperus esculentus), pigweed (Amaranthus retroflexus), ragweed (common ragweed, Ambrosia elatior), Russian thistle (Salsola kali), soybean (Glycine max), sunflower (common oilseed sunflower, Helianthus annuus) and velvetleaf (Abutilon theophrasti) were planted into a blend of loam soil and sand and treated preemergence with test compounds formulated in a non-phytotoxic solvent mixture which included a surfactant.
# (§3) At the same time, plants selected from these crop and weed species and also winter barley (Hordeum vulgare), canarygrass (Phalaris minor), chickweed (Stellaria media) and windgrass (Apera spica-venti) were planted in pots containing Redi-Earth® planting medium (Scotts Company, 14111 Scottslawn Road, Marysville, Ohio 43041) comprising spaghnum peat moss, vermiculite, wetting agent and starter nutrients and treated with postemergence applications of some of the test chemicals formulated in the same manner. Plants ranged in height from 2 to 18 cm (1- to 4-leaf stage) for postemergence treatments.
# (§4) Treated plants and controls were maintained in a greenhouse for 13 to 15 days, after which time all treated plants were visually evaluated and compared to controls. Plant response ratings, summarized in Table B, are based on a scale of 0 to 100 where 0 is no effect and 100 is complete control. A dash (-) response means no test result.
# soybean (Glycine max) = assay: Test B pre-/postemergence plant response
# Source text: as §2, §3, §4
# [5] = test system: ragweed (common ragweed, Ambrosia elatior); assay: Test B pre-/postemergence plant response
# Source text: as §2, §3, §4
# [6] = test system: johnsongrass (Sorghum halepense); assay: Test B pre-/postemergence plant response; conditions: Postemergence
# Source text: as §2, §3, §4
# [7] = test system: pigweed (Amaranthus retroflexus); assay: Test B pre-/postemergence plant response; conditions: Postemergence
# Source text: as §2, §3, §4
# [8] = test system: velvetleaf (Abutilon theophrasti); assay: Test B pre-/postemergence plant response
# Source text: as §2, §3, §4
# [9] = test system: goosegrass (Eleusine indica); assay: Test B pre-/postemergence plant response; conditions: Postemergence
# Source text: as §2, §3, §4
# wild oat (Avena fatua) = assay: Test B pre-/postemergence plant response; conditions: Postemergence
# Source text: as §2, §3, §4
# [10] = test system: cocklebur (Xanthium strumarium); assay: Test B pre-/postemergence plant response; conditions: Postemergence
# Source text: as §2, §3, §4
# kochia (Kochia scoparia) = assay: Test B pre-/postemergence plant response; conditions: Postemergence
# Source text: as §2, §3, §4
# [11] = 31 g ai/ha, scale 0 to 100 (0 no effect, 100 complete control)
# [12] = 62 g ai/ha, scale 0 (no effect) to 100 (complete control), 13 to 15 days
# [13] = 125 g ai/ha, visual rating after 13 to 15 days, scale 0 (no effect) to 100 (complete control)
# [14] = Postemergence, 31 g ai/ha, scale 0 to 100 (0 no effect, 100 complete control)
# [15] = Postemergence, 62 g ai/ha, scale 0 (no effect) to 100 (complete control), 13 to 15 days
# [16] = Postemergence, 125 g ai/ha, visual rating after 13 to 15 days, scale 0 (no effect) to 100 (complete control)
# [17] = Postemergence, 250 g ai/ha, scale 0 to 100
# [18] = Preemergence, 0 is no effect, 100 is complete control, rated after 13 to 15 days, application rate of this section not shown
substance,measurement,setting,value
"5-[(2-hydroxy-6-oxo-1-cyclohexen-1-yl)carbonyl]-2,3-diphenyl-4(3H)-pyrimidinone [Compound 2]","Plant response rating, Chickweed",[1]; [11],55
same,"Plant response rating, Chickweed",[1]; [12],60
same,"Plant response rating, Chickweed",[1]; [13],65
same,Chickweed plant response rating,"[1]; 250 g ai/ha, scale 0 to 100",90
same,"Plant response rating, Windgrass",[2]; [11],0
same,"Plant response rating, Windgrass",[2]; [12],0
same,"Plant response rating, Windgrass",[2]; [13],0
same,Windgrass plant response rating,"[2]; 250 g ai/ha, scale 0 to 100",5
same,"Plant response rating, Canarygrass",[3]; [11],0
same,"Plant response rating, Canarygrass",[3]; [12],0
same,"Plant response rating, Canarygrass",[3]; [13],0
same,Canarygrass plant response rating,"[3]; 250 g ai/ha, scale 0 to 100",0
same,"Plant response rating, Wheat",[4]; [14],0
same,"Plant response rating, Wheat",[4]; [15],0
same,"Plant response rating, Wheat",[4]; [16],0
same,Wheat plant response rating,[4]; [17],5
same,Wheat plant response rating (0 to 100 scale),[4]; [18],0
same,"Plant response rating, Soybean",soybean (Glycine max); [14],50
same,"Plant response rating, Soybean",soybean (Glycine max); [15],65
same,"Plant response rating, Soybean",soybean (Glycine max); [16],70
same,Soybean plant response rating,soybean (Glycine max); [17],80
same,Soybean plant response rating (0 to 100 scale),soybean (Glycine max); [18],0
same,"Plant response rating, Ragweed",[5]; [14],60
same,"Plant response rating, Ragweed",[5]; [15],70
same,"Plant response rating, Ragweed",[5]; [16],70
same,Ragweed plant response rating,[5]; [17],75
same,Ragweed plant response rating (0 to 100 scale),[5]; [18],25
same,"Plant response rating, Johnsongrass",[6]; [11],0
same,"Plant response rating, Johnsongrass",[6]; [12],0
same,"Plant response rating, Johnsongrass",[6]; [13],0
same,Johnsongrass plant response rating,"[6]; 250 g ai/ha, scale 0 to 100",20
same,"Plant response rating, Pigweed",[7]; [11],65
same,"Plant response rating, Pigweed",[7]; [12],80
same,"Plant response rating, Pigweed",[7]; [13],85
same,Pigweed plant response rating,"[7]; 250 g ai/ha, scale 0 to 100",90
same,"Plant response rating, Velvetleaf",[8]; [14],55
same,"Plant response rating, Velvetleaf",[8]; [15],75
same,"Plant response rating, Velvetleaf",[8]; [16],85
same,Velvetleaf plant response rating,[8]; [17],90
same,Velvetleaf plant response rating (0 to 100 scale),[8]; [18],0
same,"Plant response rating, Goosegrass",[9]; [11],60
same,"Plant response rating, Goosegrass",[9]; [12],60
same,"Plant response rating, Goosegrass",[9]; [13],65
same,Goosegrass plant response rating,"[9]; 250 g ai/ha, scale 0 to 100",80
same,"Plant response rating, Oat, Wild",wild oat (Avena fatua); [11],5
same,"Plant response rating, Oat, Wild",wild oat (Avena fatua); [12],5
same,"Plant response rating, Oat, Wild",wild oat (Avena fatua); [13],10
same,"Oat, Wild plant response rating","wild oat (Avena fatua); 250 g ai/ha, scale 0 to 100",10
same,"Plant response rating, Cocklebur",[10]; [11],65
same,"Plant response rating, Cocklebur",[10]; [12],65
same,"Plant response rating, Cocklebur",[10]; [13],70
same,Cocklebur plant response rating,"[10]; 250 g ai/ha, scale 0 to 100",85
same,"Plant response rating, Kochia",kochia (Kochia scoparia); [11],15
same,"Plant response rating, Kochia",kochia (Kochia scoparia); [12],20
same,"Plant response rating, Kochia",kochia (Kochia scoparia); [13],25
same,Kochia plant response rating,"kochia (Kochia scoparia); 250 g ai/ha, scale 0 to 100",45
